According to patent US9233110B2, “Protein nanocarriers for topical delivery” (priority 2008, dated 2016):

How the values were obtained:
[1] = in words; cited from earlier work
skin = details: Cornwell and Barry 1993; cited from earlier work
porcine dermatomed skin = experiment: Skin penetration of rhodamine 123 (fluorescence and confocal microscopy); type: in vitro ADME; details: 10 μg rhodamine 123 equivalent, 6 hours, cryosections
Procedure: For stratum corneum (SC) 0-20 μm and for epidermis 20-100 μm XZ optical sections from confocal microscopic images were used for quantifying the fluorescence pixels. The nanoparticles were prepared using the method described in Table 8-1.
Later the skin was sectioned with cryotome and observed under a fluorescent microscope.

[2] = cited from earlier work

| penetration into skin (porcine dermatomed skin) | Structure (SMILES) | solubility in water [1] | skin permeability (skin) | Log P [2] |
| --- | --- | --- | --- | --- |
| – | O=c1[nH]cc(F)c(=O)[nH]1 [5-Fluorouracil (5-FU), 5-Fluorouracil] | partially soluble in cold water | poorly permeable through skin | – |
| restricted to the top layer of skin (SC) | COC(=O)c1ccccc1-c1c2ccc(=N)cc-2oc2cc(N)ccc12.Cl [Rhodamine 123] | – | – | 1.2 |
